Results published in patent US4594338A, “Thioether derivatives of tylosin” (priority 1984, dated 1986).
Values after ≈ are worked out from the molar mass of the structure shown.

What was measured:
Format in all cases: cell-based
Escherichia coli NIHJ = assay: Minimum inhibitory concentration, Escherichia coli NIHJ
Source text: (§1) The compounds of formula (I) show antibacterial activity against both gram-positive and gram-negative bacteria. The following Tables illustrate minimum inhibitory concentrations (MIC's) for a representative sample of the compounds of the invention against gram-positive and gram-negative bacteria as well as bacteria resistant to antibiotics. In the Tables abbreviations with the symbol r attached designate resistant bacterial strains.

Bacillus cereus IFO 3001 = assay: Minimum inhibitory concentration, Bacillus cereus IFO 3001; settings: IFO3001
Source text: as §1

[1] = test system: Mycobacterium smegmatis ATCC 607; assay: Minimum inhibitory concentration, Mycobacterium smegmatis ATCC 607; settings: Mycolicibacterium smegmatis, ATCC607
Source text: as §1

[2] = test system: Staphylococcus aureus ATCC 6538P; assay: Minimum inhibitory concentration, Staphylococcus aureus ATCC 6538P; settings: ATCC6538P
Source text: as §1

[3] = test system: Staphylococcus aureus KB 199(EM^r); assay: Minimum inhibitory concentration, Staphylococcus aureus KB 199(EM^r); settings: Staphylococcus aureus KB 199, erythromycin-resistant (EM^r)
Source text: as §1

[4] = test system: Proteus vulgaris IFO 3167; assay: Minimum inhibitory concentration, Proteus vulgaris IFO 3167; settings: IFO3167
Source text: as §1

[5] = test system: Micrococcus luteus ATCC 9341; assay: Minimum inhibitory concentration, Micrococcus luteus ATCC 9341; settings: ATCC9341
Source text: as §1

[6] = test system: Salmonella typhirium KB 20; assay: Minimum inhibitory concentration, Salmonella typhirium KB 20; settings: KB20, read-out: minimum inhibitory concentration (MIC)
Source text: as §1

[7] = test system: Klebsiella pneumoniae PCI 602; assay: Minimum inhibitory concentration, Klebsiella pneumoniae PCI 602; settings: PCI602
Source text: as §1

[8] = test system: Klebsiella pneumoniae ATCC 10031; assay: Minimum inhibitory concentration, Klebsiella pneumoniae ATCC 10031; settings: ATCC10031
Source text: as §1

[9] = test system: Bacillus subtilis PCI 219; assay: Minimum inhibitory concentration, Bacillus subtilis PCI 219; settings: PCI219
Source text: as §1

[10] = test system: Pseudomonas aeruginosa P-3; assay: Minimum inhibitory concentration, Pseudomonas aeruginosa P-3; settings: P3
Source text: as §1

CCC1OC(=O)CC(O)C(C)C(OC2OC(C)C(OC3CC(C)(O)C(O)C(C)O3)C(N(C)C)C2O)C(CC(Sc2ccccc2)Sc2ccccc2)CC(C)C(=O)C=CC(C)=CC1COC1OC(C)C(O)C(OC)C1OC (centres unmarked) [Compound C, Tylosin Diphenyl Thioacetal]
MIC (Escherichia coli NIHJ): > 100 µg/mL | MIC (Bacillus cereus IFO 3001): 0.78 µg/mL (≈ 0.697 µM) | MIC [1]: 50 µg/mL (≈ 44.7 µM) | MIC [2]: 12.5 µg/mL (≈ 11.2 µM) | MIC [3]: > 50 µg/mL | MIC [4]: > 100 µg/mL | MIC [5]: 0.2 µg/mL (≈ 0.179 µM) | MIC [6]: > 100 µg/mL | MIC [7]: > 100 µg/mL | MIC [8]: > 100 µg/mL | MIC [9]: 0.78 µg/mL (≈ 0.697 µM)

CCSC1CC(=O)C(C)CC(CC=O)C(OC2OC(C)C(O)C(N(C)C)C2O)C(C)C(O)CC(=O)OC(CC)C(COC2OC(C)C(O)C(OC)C2OC)C=C1C (centres unmarked) [Compound N, 11-(Ethylthio)-10,11-dihydrodemycarosyltylosin]
MIC (Escherichia coli NIHJ): > 100 µg/mL | MIC [10]: > 100 µg/mL | MIC (Bacillus cereus IFO 3001): 0.78 µg/mL (≈ 0.935 µM) | MIC [1]: > 100 µg/mL | MIC [2]: 1.56 µg/mL (≈ 1.87 µM) | MIC [3]: > 100 µg/mL | MIC [4]: > 100 µg/mL | MIC [5]: 0.2 µg/mL (≈ 0.24 µM) | MIC [6]: > 100 µg/mL | MIC [7]: > 100 µg/mL | MIC [8]: 50 µg/mL (≈ 59.9 µM) | MIC [9]: 0.78 µg/mL (≈ 0.935 µM)

CCC1OC(=O)CC(O)C(C)C(OC2OC(C)C(O)C(N(C)C)C2O)C(CC=O)CC(C)C(=O)CC(Sc2ccc(N)cc2)C(C)=CC1COC1OC(C)C(O)C(OC)C1OC (centres unmarked) [Compound P, 11-(p-Aminophenylthio)-10,11-dihydrodemycarosyltylosin]
MIC (Escherichia coli NIHJ): > 100 µg/mL | MIC [10]: > 100 µg/mL | MIC (Bacillus cereus IFO 3001): 0.78 µg/mL (≈ 0.869 µM) | MIC [1]: > 100 µg/mL | MIC [2]: 3.12 µg/mL (≈ 3.48 µM) | MIC [3]: > 100 µg/mL | MIC [4]: > 100 µg/mL | MIC [5]: 0.2 µg/mL (≈ 0.223 µM) | MIC [6]: > 100 µg/mL | MIC [7]: > 100 µg/mL | MIC [8]: 100 µg/mL (≈ 111 µM) | MIC [9]: 3.12 µg/mL (≈ 3.48 µM)

CCC1OC(=O)CC(O)C(C)C(OC2OC(C)C(O)C(N(C)C)C2O)C(CC=O)CC(C)C(=O)CC(Sc2ccccc2)C(C)=CC1COC1OC(C)C(O)C(OC)C1OC (centres unmarked) [Compound Q, 10,11-Dihydro-11-(phenylthio)demycarosyltylosin]
MIC (Escherichia coli NIHJ): 100 µg/mL (≈ 113 µM) | MIC [10]: > 100 µg/mL | MIC (Bacillus cereus IFO 3001): 0.2 µg/mL (≈ 0.227 µM) | MIC [1]: > 100 µg/mL | MIC [2]: 0.78 µg/mL (≈ 0.884 µM) | MIC [3]: > 100 µg/mL | MIC [4]: 50 µg/mL (≈ 56.7 µM) | MIC [5]: < 0.1 µg/mL | MIC [6]: 100 µg/mL (≈ 113 µM) | MIC [7]: 100 µg/mL (≈ 113 µM) | MIC [8]: 100 µg/mL (≈ 113 µM) | MIC [9]: 0.78 µg/mL (≈ 0.884 µM)

CCSC1CC(=O)C(C)CC(CC=O)C(OC2OC(C)C(OC3CC(C)(O)C(O)C(C)O3)C(N(C)C)C2O)C(C)C(O)CC(=O)OC(CC)C(COC2OC(C)C(O)C(OC)C2OC)C=C1C (centres unmarked) [Compound R, 11-(Ethylthio)-10,11-dihydrotylosin]
MIC (Escherichia coli NIHJ): 100 µg/mL (≈ 102 µM) | MIC [10]: > 100 µg/mL | MIC (Bacillus cereus IFO 3001): 0.78 µg/mL (≈ 0.797 µM) | MIC [1]: 100 µg/mL (≈ 102 µM) | MIC [2]: 1.56 µg/mL (≈ 1.59 µM) | MIC [3]: > 100 µg/mL | MIC [4]: > 100 µg/mL | MIC [5]: < 0.1 µg/mL | MIC [6]: > 100 µg/mL | MIC [7]: 100 µg/mL (≈ 102 µM) | MIC [8]: 100 µg/mL (≈ 102 µM) | MIC [9]: 0.78 µg/mL (≈ 0.797 µM)
